The series is described as follows: Solubility enhancement of zotarolimus with select excipient solutions. Conditions: Phosphate buffered saline; n = 3. It counts as physicochemical. From the text: Table 1 provides non-limiting examples of the solubility data for excipients that can be used in accordance with the disclosed subject matter:
As illustrated, in Table 1 the excipients provide for increased solubility for the cytostatic drug, zotarolimus, as compared to saline alone.

As to `CO[C@H]1C[C@@H]2CC[C@@H](C)[C@@](O)(O2)C(=O)C(=O)N2CCCC[C@H]2C(=O)O[C@H]([C@H](C)C[C@@H]2CC[C@H](n3cnnn3)[C@H](OC)C2)CC(=O)[C@H](C)/C=C(\C)[C@@H](O)[C@@H](OC)C(=O)[C@H](C)C[C@H](C)/C=C/C=C/C=C/1C` [Zotarolimus, zotarolimus], the “Zotarolimus Solubility” value came to 0.53 µg/mL.

These data come from patent US8480620B2, “Coatings with tunable solubility profile for drug-coated balloon” (Abbott Cardiovascular Systems Inc., priority 2009, dated 2013).
